Data from patent EP0167385B1, “Antiviral compounds, treatment and formulations” (THE WELLCOME FOUNDATION LIMITED, priority 1984, dated 1986).
Where two headings read alike, the source gives them in different places.

How the values were obtained:
VZV = test: antiviral test against VZV; details: antiviral tests, general statement
human CMV = test: plaque reduction assay in human foreskin fibroblast monolayers; assay type: cell-based; details: for EC50: Human betaherpesvirus 5, Fibroblast, 192 h, Human Foreskin Fibroblasts, 8 days, read-out: ED₅₀
Procedure: Confluent monolayers of human diploid fibroblast cells (i.e., human foreskin fibroblast cells) were infected with 200-300 µL of a suspension containing 50-100 human CMV infectious virions per culture well and allowed to incubate for 90 minutes at 37 degrees C in a CO₂ incubator. Unadsorbed virus was then removed by aspiration and appropriate concentrations of 1-[2-hydroxy-1-(hydroxymethyl)ethoxymethyl] cytosine were added in Eagle's Minimal Essential Media containing 2% fetal calf serum in an agarose overlay (0.6%). The assay plates were incubated at 37 degrees C in a CO₂ incubator for 8 days to allow plaque development. The monolayers were then fixed with 10% formalin in phosphate buffered saline and stained wth 0.8% crystal violet. The plaques were counted at 3x magnification using a Bausch and Lomb dissecting microscope, and the data were analysed by SAS Probit (SAS Institute, Inc., Cary, N.C., U.S.A.) to give the following results: […]

Epstein-Barr Virus (EBV) = test: EBV-specific cRNA-DNA hybridization, EBV genome equivalents in P3HR-1 cells; assay type: cell-based
Procedure: 1-[2-Hydroxy-1-(hydroxymethyl)ethoxymethyl]cytosine was assayed for activity against Epstein-Barr Virus (EBV) using an adaptaion of the procedure described in Nature New Biology, 233, 103-106 (1971). This technique, employing an EBV-specific cRNA-DNA hybridization on filter membranes, detects the amount of EBV genome equivalents produced in the virus-producing cell lines. In this assay the EBV-producing cell line […]-1 (ATCC HTB 62) was exposed to various concentrations of 1-[2-hydroxy-1-(hydroxymethyl)-ethoxymethyl]cytosine for 14 days and EBV genome equivalents per cell were then determined to give an ED50 of approximately 0.05 μM.

HSV-1 = details: concentrations up to 100 ug; Ogilvy et al, Nucleosides and Nucleotides (1983); cited from earlier work
[1] = urine levels after oral administration, rats; assay type: in vivo; details: compared with oral administration of the compound of formula (I) itself
[2] = urine levels after oral administration, mice; assay type: in vivo; details: compared with oral administration of the compound of formula (I) itself
[3] = toxicity in mice after administration by gavage; assay type: in vivo; details: 44.5 mg per kg by gavage, suspension in 5% Tween 80, 28 male CD-1 mice
Procedure: The compound of formula (II) was administered to 28 male CD-1 mice by gavage. The dose was 44.5 mg per kg of body weight and was in suspension in 5% Tween 80 at a concentration of 5 mg/ml.

[4] = antiviral tests, general statement

SMILES | activity against VZV (VZV) | EC50 (human CMV; Virus Strain ATCC VR-538 (strain AD169)) [nM] | EC50 (human CMV; Virus Strain Kerr) [nM] | activity against CMV (human CMV; [4]) | activity against EBV (Epstein-Barr Virus (EBV); [4]) | EC50 (Epstein-Barr Virus (EBV); human gammaherpesvirus 4, 336 h, P3HR-1 (ATCC HTB 62) cells exposed for 14 days, read-out: ED₅₀ (EBV genome equivalents per cell)) [nM] | activity against HSV-1 (HSV-1) | body fluid levels of the compound of formula (I), as demonstrated by urine levels [1] | body fluid levels of the compound of formula (I), as demonstrated by urine levels [2] | signs of toxicity [3]
Nc1ccn(COC(CO)CO)c(=O)n1 [1-[2-Hydroxy-1-(hydroxymethyl)ethoxymethyl]cytosine] | surprisingly good activity | 3700 ± 700 | 1900 ± 200 | surprisingly good activity | surprisingly good activity | ~50 | no activity | – | – | –
CC(C)(C)C(=O)OCC(COC(=O)C(C)(C)C)OCn1ccc(N)nc1=O [compound of formula (II), 2-[(4-Amino-1,2-dihydro-2-oxo-1-pyrimidinyl)methoxy]-1,3-propanediyl Dipivalate] | – | – | – | – | – | – | – | substantially higher | substantially higher | No signs of toxicity were observed
